Legend:
Caco-2 cell monolayers = experiment: Transport experiment with Caco-2 cell monolayers; conditions: for transport percentage: Caco-2 cell monolayers; for After transported with Caco-2 cell monolayers: intestinal bacterial transformed AEOF
Protocol: (§1) The Caco-2 cells were cultured in the culture medium consisting of Dulbecco’s Modified Eagle Medium (DMEM, Gibco Inc., Grand Island, CA)-fetal bovine serum (FBS, Gibco Inc., Grand Island, CA)-nonessential amino acids (NEAA, Corning Costar, Cambridge, MA)-‘penicillin-streptomycin’ (Corning Costar, Cambridge, MA) (100:10:1:1, v/v/v/v) in 25 cm^2 flasks, which were incubated in 5% CO2 and constant temperature (37 °C) and humidity in the incubator. The culture medium was replaced every 2 or 3 days, and the cells were split 1:2 or 1:3 to conduct passage when they reached 80% confluence.
(§2) About 1.5 mL of the culture medium was added into the basal (BL) side of each well of the 12-well Transwell plates (insert diameter 12 mm, pore size 3.0 μm, membrane growth area 1.12 cm^2, Corning Costar, Cambridge, MA), and 0.5 mL of the Caco-2 cell suspension at the density of 2.0 × 10^5 cells/mL was seeded into the apical (AP) side of each insert. The cells were incubated in 5% CO2 and constant temperature (37 °C) and humidity in the incubator. The culture medium in both AP and BL sides was replaced every other day in the first week, then that in AP side was replaced every day and that in BL side was replaced every other day. The cells would differentiate and form a confluent monolayer. The integrity and viability of the cell monolayers were evaluated by measuring transepithelial electrical resistance (TEER) values in the culture medium at 37 °C using a Millicell®-ERS system (Millipore Corp., Bedford, MA), and only the inserts with the TEER above 600 Ω/cm^2 on day 21 were selected to perform the transport experiment.
(§3) About 200 μL of the solution in the receiving chambers was collected at 30, 60, 90, 120, 150, and 180 min, respectively, and then the same volume of HBSS was added. All samples were stored at −20 °C and filtered through a 0.45 μm membrane filter for HPLC analysis.
(§4) The HPLC conditions used for the analysis of the intestinal bacterial transformed AEOF before and after transport experiment was the same as above.
(§5) The transport percentage (%) was calculated using the formula transport percentage (%) = dQ/(C0 × V) × 100, wherein, V (mL) represented the volume of the donor compartment.

[1] = Transport experiment with Caco-2 cell monolayers; conditions: human; for Papp at 180 min, 10 mg/mL / Papp at 180 min, 20 mg/mL / Papp at 180 min, 30 mg/mL: Caco-2, Papp, Caco-2 cell monolayers; for Papp at 180 min, 10 mg/mL: extract 10 mg/mL; for Papp at 180 min, 20 mg/mL: extract 20 mg/mL; for Papp at 180 min, 30 mg/mL: extract 30 mg/mL
Protocol: as §1, §2, §3, §4, §5

[2] = tested on: activated intestinal bacteria; experiment: Intestinal bacterial transformation of AEOF; format: in vitro ADME, human; conditions: for After transformed by intestinal bacteria / Before transformed by intestinal bacteria: content in the extract; for transformation by intestinal bacteria (in words): in AEOF 15.0, 30.0, 60.0 mg/mL, up to 72 h, single person derived- or multiple people-derived intestinal bacteria; for time in which completely transformed by intestinal bacteria: in AEOF, isoquercetin to quercetin, trollioside to proglobeflowery acid
Protocol: Each 3 g of fresh feces from 3 healthy men and 3 healthy women of 23–25 years old was suspended in 200 mL of general anaerobic medium (GAM, including L-cystine hydrochloride, soluble starch, pepsin, tryptone, peptone, soy peptone, serum powder, yeast extract, beef extract, and beef liver extract powder purchased from Beijing Aoboxing Biotechnology Co., Ltd, Beijing, China) broth prepared as per a literature (Yang & Xu [2011]), respectively, and cultured in an anaerobic incubator (Shanghai Cimomedical Appliance Co., Ltd., Shanghai, China) at 37 °C for 24 h (Tsuchihashi et al. [2009]). […] Each 100 μL of the activated intestinal bacteria from the 6 volunteers were added into 11.4 mL of GAM, mixed adequately, and incubated in the same conditions as previously to obtain the mixture of activated intestinal bacteria. About 0.4513, 0.9026, and 1.8052 g of AEOF were dissolved in 30 mL of GAM on a super clean bench (Beijing Great Wall Air Purification Co. Ltd., Beijing, China), respectively, to generate the experimental groups. Then, the triplicate GAM containing AEOF was divided into 24 screw-cap test tubes, and each screw-cap test tube had 3 mL of the GAM and 100 μL of the activated intestinal bacteria and the mixture of activated intestinal bacteria, respectively. They were incubated under the same condition, and the test tubes of each concentration in triplicate were removed from the anaerobic incubator at 0, 2, 4, 6, 12, 24, 48, and 72 h. About 100 μL of the bacterial suspension was replaced with GAM to obtain the control group. The GAM absent of the AEOF was used as the blank group. […] About 300 μL of the supernatant was collected, filtered through a 0.45 μm membrane filter, and stored at −20 °C before HPLC analysis.
The HPLC analysis was performed using a Waters 1500 series (Waters Business Operations, Milford, MA) equipped with a 1525 binary HPLC pump, an on-line degasser, a manual injector and a 2489 UV/Visible detector. […] The temperature was set at 35 °C and the UV detecting wavelengths were 254 and 365 nm. The mobile phase consisted of acetonitrile (HPLC grade, Fisher Co., Pittsburgh, PA) (A) and 1.0% acetic acid (Beijing Chemical Works, Beijing, China) in purified water (v/v) (B), and the gradient elution program was as follows: 5–10% A (0–5 min), 10–20% A (5–10 min), 20–25% A (10–22 min), 25–40% A (22–35 min), 40–50% A (35–40 min), and 50–5% A (40–42 min) at a flow rate of 1.0 mL/min. The volume injected was 5 μL.

[3] = Absorption experiment with everted gut sacs; conditions: Sprague-Dawley, rat
[4] = tested on: everted gut sacs (jejunum); experiment: Absorption experiment with everted gut sacs; conditions: for transport percentage: Everted gut sacs, AP→BL; for After transported with everted gut sacs: intestinal bacterial transformed AEOF
[5] = previous study, ref Liu et al. [2015]; cited from earlier work
[6] = first of three lines per compound (lowest concentration; 10, 20, 30 mg/mL)
[7] = second of three lines per compound (middle concentration, not given)
[8] = third of three lines per compound (highest concentration, not given)
[9] = first of three lines per compound (lowest extract concentration)
[10] = first of three lines per compound (lowest extract concentration; AEOF 15, 30, 60 mg/mL)
[11] = second of three lines per compound (middle extract concentration, not given)
[12] = third of three lines per compound (highest extract concentration, not given)

| Compound | After transported with Caco-2 cell monolayers (Caco-2 cell monolayers; [6]) [µg/mL] | After transported with Caco-2 cell monolayers (Caco-2 cell monolayers; [7]) [µg/mL] | After transported with Caco-2 cell monolayers (Caco-2 cell monolayers; [8]) [µg/mL] | After transformed by intestinal bacteria [2, 9] [µg/mL] | Before transformed by intestinal bacteria [2, 10] [µg/mL] | After transformed by intestinal bacteria [2, 11] [µg/mL] | Before transformed by intestinal bacteria [2, 11] [µg/mL] | After transformed by intestinal bacteria [2, 12] [µg/mL] | Before transformed by intestinal bacteria [2, 12] [µg/mL] | transformation by intestinal bacteria (in words) [2] | After transported with everted gut sacs [4, 6] [µg/mL] | After transported with everted gut sacs [4, 7] [µg/mL] | After transported with everted gut sacs [4, 8] [µg/mL] | time in which completely transformed by intestinal bacteria [2] [h] | further results |
| --- | --- | --- | --- | --- | --- | --- | --- | --- | --- | --- | --- | --- | --- | --- | --- |
| O=c1cc(-c2ccc(O)c(O)c2)oc2c(C3OC(CO)C(O)C(O)C3OC3OC(CO)C(O)C(O)C3O)c(O)cc(O)c12 [2″-O-β-L-galactopyranosylorientin] | 0.41 | 1.44 | 4.78 | 28.06 | 26.86 | 56.34 | 56.18 | 100.57 | 104.39 | not changed | 1.57 | 1.69 | 5.38 | – | transport percentage (Caco-2 cell monolayers; extract 10 mg/mL, AP→BL): 13.41%; transport percentage (Caco-2 cell monolayers; extract 10 mg/mL, BL→AP): 8.72%; transport percentage (Caco-2 cell monolayers; extract 20 mg/mL, AP→BL): 22.93%; transport percentage (Caco-2 cell monolayers; extract 20 mg/mL, BL→AP): 14.08%; transport percentage (Caco-2 cell monolayers; extract 30 mg/mL, AP→BL): 49.29%; transport percentage (Caco-2 cell monolayers; extract 30 mg/mL, BL→AP): 16.83%; Papp at 180 min, 10 mg/mL ([1]; AP→BL): 11.1 ± 0.9 ×10⁻⁶ cm/s; Papp at 180 min, 10 mg/mL ([1]; BL→AP): 21.6 ± 2.4 ×10⁻⁶ cm/s; Papp at 180 min, 20 mg/mL ([1]; AP→BL): 19 ± 0.9 ×10⁻⁶ cm/s; Papp at 180 min, 20 mg/mL ([1]; BL→AP): 34.9 ± 0.9 ×10⁻⁶ cm/s; Papp at 180 min, 30 mg/mL ([1]; AP→BL): 40.7 ± 4 ×10⁻⁶ cm/s; Papp at 180 min, 30 mg/mL ([1]; BL→AP): 41.7 ± 2.8 ×10⁻⁶ cm/s; transformation by intestinal bacteria (in words) ([2]; listed as 2″-O-β-L-Galactopyranosylorientin): not transformed; Papp at 180 min, 10 mg/mL [3]: 41.1 ± 2.5 ×10⁻⁶ cm/s; Papp at 180 min, 20 mg/mL [3]: 22.3 ± 4.1 ×10⁻⁶ cm/s; Papp at 180 min, 30 mg/mL [3]: 46.7 ± 2.5 ×10⁻⁶ cm/s; transport percentage ([4]; extract 10 mg/mL): 8.76%; transport percentage ([4]; extract 20 mg/mL): 4.23%; transport percentage ([4]; extract 30 mg/mL): 9.25%; absorption mechanism [5]: transporter mediated efflux in addition to passive diffusion |
| O=c1c(O[C@@H]2O[C@H](CO)[C@@H](O)[C@H](O)[C@H]2O)c(-c2ccc(O)c(O)c2)oc2cc(O)cc(O)c12 [isoquercetin] | 0.00 | 0.00 | 0.00 | 0.00 | 0.37 | 0.00 | 0.56 | 0.00 | 1.38 | completely transformed | 0.00 | 0.00 | 0.00 | ≤ 24 | – |
| CC(C)NCC(O)COc1cccc2ccccc12 (stereo not drawn) [propranolol, reference compound] | – | – | – | – | – | – | – | – | – | – | – | – | – | – | Papp at 180 min ([1]; Caco-2, apparent permeability coefficient (Papp), reference compounds, validation of Caco-2 monolayers): 41.2 ×10⁻⁶ cm/s |
| O=c1c(O)c(-c2ccc(O)c(O)c2)oc2cc(O)cc(O)c12 [quercetin] | 0.00 | 0.00 | 0.00 | 2.12 | 1.56 | 4.02 | 3.25 | 8.45 | 7.38 | not transformed | 0.00 | 0.00 | 0.00 | – | – |
| COc1cc(C(=O)O)cc(CC=C(C)C)c1OC1OC(CO)C(O)C(O)C1O (stereo not drawn) [trollioside] | 0.00 | 0.00 | 0.00 | 0.00 | 5.62 | 0.00 | 12.76 | 0.00 | 26.84 | completely transformed | 0.00 | 0.00 | 0.00 | ≤ 24 | – |

Source: article PMC6130518, “Investigation of the effective components of the flowers of Trollius chinensis from the perspectives of intestinal bacterial transformation and intestinal absorption” (Pharmaceutical Biology, 2017)
